Reference: patent US6486164B2, “6-(4-arylalkylpiperazin-1-yl) benzodioxane and 6-(4-arylalkylpiperazin-1-yl) chromane derivatives: dopamine receptor subtype specific ligands” (Neurogen Corporation, priority 1998, dated 2002)
Counter-ions that a name gives are not always drawn. Like-named read-outs stand apart in the source and are kept apart here.

Tests used:
D3 receptors from human = target: T1, D3 receptors from human (Homo sapiens, UniProt P35462); assay: D3 receptor binding assay (3H-YM 09151-2 displacement)
T1 construct: expressed in transfected cells; host or cells: COS cells
T1 sequence (P35462 whole entry): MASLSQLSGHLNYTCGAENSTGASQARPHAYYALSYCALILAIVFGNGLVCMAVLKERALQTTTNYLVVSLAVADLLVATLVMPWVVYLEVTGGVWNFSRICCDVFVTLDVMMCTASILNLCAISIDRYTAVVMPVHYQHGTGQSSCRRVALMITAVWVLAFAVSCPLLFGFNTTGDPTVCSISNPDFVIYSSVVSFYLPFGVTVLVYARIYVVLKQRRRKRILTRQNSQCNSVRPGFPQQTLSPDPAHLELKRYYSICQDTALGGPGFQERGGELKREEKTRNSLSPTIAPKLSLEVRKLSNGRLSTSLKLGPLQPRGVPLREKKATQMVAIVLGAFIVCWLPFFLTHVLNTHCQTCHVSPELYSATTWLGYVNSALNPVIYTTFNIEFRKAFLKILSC
Description: (§1) Pellets of COS cells containing recombinantly produced D2, D3 or D4 receptors from human are used for the assays. The sample is homogenized in 100 volumes (w/vol) of 0.05 M Tris HCl buffer at 4° C. and pH 7.4. The sample is then centrifuged at 30,000×g and resuspended and rehomogenized. The sample is then centrifuged as described and the final tissue sample is frozen until use. The tissue is resuspended 1:20 (wt/vol) in 0.05 M Tris HCl buffer containing 100 mM NaCl.

D4 receptors from human = target: T2, D4 receptors from human (Homo sapiens, UniProt P21917); assay: D4 receptor binding assay (3H-YM 09151-2 displacement)
T2 construct: expressed in transfected cells; host or cells: COS cells
T2 sequence (P21917 1-419): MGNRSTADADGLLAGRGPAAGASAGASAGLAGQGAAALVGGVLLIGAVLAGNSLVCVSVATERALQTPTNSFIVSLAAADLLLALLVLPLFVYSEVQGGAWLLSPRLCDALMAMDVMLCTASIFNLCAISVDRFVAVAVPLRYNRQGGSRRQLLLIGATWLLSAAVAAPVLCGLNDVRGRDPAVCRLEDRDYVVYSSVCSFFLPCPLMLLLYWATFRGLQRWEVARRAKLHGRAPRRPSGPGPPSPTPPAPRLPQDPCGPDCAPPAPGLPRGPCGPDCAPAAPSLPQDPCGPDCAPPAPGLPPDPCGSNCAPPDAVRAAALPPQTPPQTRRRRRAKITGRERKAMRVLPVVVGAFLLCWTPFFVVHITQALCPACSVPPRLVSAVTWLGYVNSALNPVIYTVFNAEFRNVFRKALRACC
Description: as §1

D2 receptors from human = target: T3, D2 receptors from human (Homo sapiens, UniProt P14416); assay: D2 receptor binding assay (3H-YM 09151-2 displacement)
T3 construct: expressed in transfected cells; host or cells: COS cells
T3 sequence (P14416 whole entry): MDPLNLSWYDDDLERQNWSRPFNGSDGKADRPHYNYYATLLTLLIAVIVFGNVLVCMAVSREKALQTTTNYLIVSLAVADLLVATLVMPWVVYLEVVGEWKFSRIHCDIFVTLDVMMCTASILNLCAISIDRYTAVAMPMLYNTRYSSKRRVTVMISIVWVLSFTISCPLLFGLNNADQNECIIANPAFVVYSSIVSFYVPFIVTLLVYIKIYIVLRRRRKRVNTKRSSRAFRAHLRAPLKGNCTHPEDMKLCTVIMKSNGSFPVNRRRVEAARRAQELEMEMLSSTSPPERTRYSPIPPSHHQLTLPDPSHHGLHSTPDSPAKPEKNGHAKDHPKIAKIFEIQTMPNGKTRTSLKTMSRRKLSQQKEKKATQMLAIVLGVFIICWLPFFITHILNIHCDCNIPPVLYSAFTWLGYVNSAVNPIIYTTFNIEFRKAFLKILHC
Description: as §1

[1] = recombinant human receptor in COS cells, 0.5 nM 3H-YM 09151-2, read-out: D3 Ki
[2] = recombinant human receptor in COS cells, 0.5 nM 3H-YM 09151-2, read-out: D4 Ki
[3] = recombinant human receptor in COS cells, 0.5 nM 3H-YM 09151-2, read-out: D2 Ki

Q: Which results are given for `COc1cccc(CN2CCN(c3ccc4c(c3)OCCO4)CC2)c1` [Compound 2, 1-(1,4-benzodioxan-6-yl)-4-(3-methoxybenzyl)piperazine oxalate]?
A: Ki (D3 receptors from human; [1]): 2570 nM; Ki (D4 receptors from human; [2]): 37 nM; Ki (D2 receptors from human; [3]): 2590 nM

Q: Which Ki (D3 receptors from human; [1]) does the source give for “1-(Chroman-6-yl)-4-(4-methylbenzyl)piperazine Oxalate [Compound 4]” here?
A: 2990 nM

Q: What about the Ki (D4 receptors from human; [2]) of the same compound?
A: 35 nM

Q: And the Ki (D2 receptors from human; [3])?
A: 2310 nM

Q: With `COc1ccccc1CN1CCN(c2ccc3c(c2)OCCO3)CC1.O=C(O)C(=O)O` as the compound, how does the melting point read?
A: 143 °C

Q: Which melting point does the source give for `Cc1ccc(CN2CCN(c3ccc4c(c3)OCCO4)CC2)cc1.O=C(O)C(=O)O` here?
A: 200 to 201 °C

Q: Which results are given for `Fc1ccc(CN2CCN(c3ccc4c(c3)OCCO4)CC2)cc1` [Compound 1, 1-(1,4-Benzodioxan-6-yl)-4-(4-fluorobenzyl)piperazine Oxalate]?
A: Ki (D3 receptors from human): 3660 nM; Ki (D4 receptors from human): 11 nM; Ki (D2 receptors from human): > 4000 nM

Q: Which melting point does the source give for `Clc1cccc(CN2CCN(c3ccc4c(c3)OCCO4)CC2)c1.O=C(O)C(=O)O` here?
A: 213 to 215 °C

Q: With `COc1ccc(CN2CCN(c3ccc4c(c3)OCCO4)CC2)cc1.O=C(O)C(=O)O` as the compound, how does the melting point read?
A: 193 to 195 °C

Q: Which Ki (D3 receptors from human) does the source give for `Clc1ccc(CN2CCN(c3ccc4c(c3)OCCO4)CC2)cc1` [Compound 3, 1-(1,4-benzodioxan-6-yl)-4-(4-chlorobenzyl)piperazine oxalate] here?
A: 2630 nM

Q: And the Ki (D4 receptors from human)?
A: 25 nM

Q: What about the Ki (D2 receptors from human) of the same compound?
A: > 4000 nM

Q: Which melting point does the source give for `Cl.c1ccc(CN2CCN(c3ccc4c(c3)OCCO4)CC2)cc1` here?
A: 143 to 145 °C

Q: Which melting point does the source give for `Clc1ccc(CN2CCN(c3ccc4c(c3)OCCO4)CC2)cc1` (as salt: oxalate) [Compound 3, 1-(1,4-benzodioxan-6-yl)-4-(4-chlorobenzyl)piperazine oxalate] here?
A: 213 to 215 °C

Q: With `Clc1ccccc1CN1CCN(c2ccc3c(c2)OCCO3)CC1.O=C(O)C(=O)O` as the compound, how does the melting point read?
A: 175 °C

Q: For `COc1cccc(CN2CCN(c3ccc4c(c3)OCCO4)CC2)c1` (as salt: oxalate) [Compound 2, 1-(1,4-benzodioxan-6-yl)-4-(3-methoxybenzyl)piperazine oxalate], which melting point is on record?
A: 213 to 215 °C
